Data on one compound can be found in patent publication US12721818B2, “Compositions and methods for delivery of RNA” (Rejuvenation Technologies Inc., priority 2021, dated 2026).

SMILES strings stand for the structures.

This series in a line: pK of the ionizable lipid (Table 6A). It is filed as physicochemical. Particulars: ionizable lipid of the Table 6A formulation.

Compound `CCCCCCCC/C=C\CCCCCCCC(=O)Oc1ccc(CC(=O)OCCC2CCN(CCSSCCN3CCC(CCOC(=O)Cc4ccc(OC(=O)CCCCCCC/C=C\CCCCCCCC)cc4)CC3)CC2)cc1` [SS-OP] showed a pK of approximately 6.4.
